Source: US20190054103A1, “METHOD OF TREATMENT OF TP53 WILD-TYPE TUMORS WITH 2',2'-DIFLUORO-5-AZA-2'-DEOXYCYTIDINE OR PRODRUGS THEREOF” (priority 2016, published 2019)

How the values were obtained:
[1] = tested on: HL-60 (leukemia, TP null); conditions: HL-60 nude mice
[2] = tested on: TP53 WT colon cancer cell line Ls174T; test: CellTiter-Glo growth inhibition, Ls174T; type: cell-based; conditions: 72-hour exposure, FIG. 1
Description: (§1) Two examples of additional comparisons are provided below for colon cancer cell lines (TP53 WT colon cancer cell line Ls174T and TP53 WT colon cancer cell line LoVo).
(§2) In these assays, two 96 well plates of each cell line were seeded with 5,000 cells per well in a total volume of […] per well and left incubating overnight. The following day, the cells were exposed to different concentrations of NUC013. At the end of a 72-hour exposure period, the plates were removed for CellTiter-Glo® assay. Luminescence was recorded on a Synergy 4.0.

[3] = tested on: TP53 WT colon cancer cell line LoVo; test: CellTiter-Glo growth inhibition, LoVo; type: cell-based; conditions: 72-hour exposure, FIG. 2
Description: as §1, §2

[4] = tested on: HeLa cells; test: Nucleotide concentrations in HeLa cell extracts by HPLC (RNR inhibition); type: cell-based; conditions: 50 μM, 16 h incubation
Text: The more common approach is to synthesize a nucleoside diphosphate and then determine whether it inhibits RNR or p53R2. […] Nucleic Acids Research. […] The other approach is to expose cells in tissue culture to the drug and then attempt to determine whether deoxynucleotide synthesis is inhibited when compared to control cells. Measurement of deoxynucleotides may be done by radioimmunoassay or by HPLC. The disadvantage of a radioimmunoassay is that it can only measure a single deoxynucleotide triphosphate (dNTP) at a time and typically requires a tritiated nucleotide, but it is the preferred method for measuring dCTP [Piall E M, Aherne G W, Marks V. The quantitative determination of 2′-deoxycytidine-5′ triphosphate in cell extracts by radioimmunoassay. Anal Biochem. 1986; 154(1):276-281 incorporated herein by reference in its entirety]. On the other hand, HPLC can measure multiple nucleotides without requiring radiolabeling, but has been noted to quantitate poorly dC nucleotides, possibly as an artifact of an influx of dCTP from the medium [Bianchi V, Pontis E, Reichard P. Changes of deoxyribonucleoside triphosphate pools induced by hydroxyurea and their relation to DNA synthesis. J Biol Chem. 1986; 261(34): 16037-16042 incorporated herein by reference in its entirety]. This approach was used to determine RNR inhibition by NUC013.
Briefly, HeLa cells ([…]) were grown in the presence or absence of drug, in this case gemcitabine or NUC013. At the end of a 16 h incubation, the medium was aspirated, cells monolayers washed twice with PBS, and used for nucleotide extraction. The nucleotides were extracted from cell monolayers by the addition of ice-cold 80% acetonitrile (ACN) for 1 h. The extracts were centrifuged to remove cellular debris and loaded on a SAX column (100 mg, Supelco) pre-conditioned with methanol, water and ACN. Once the sample was completely effused, the cartridge was washed with 3 ml 80% ACN and 3 ml water and eluted with 1M KCl. The eluent was filtered through a 0.45 μm filter membrane (Roth) and analyzed by HPLC. Peak identification of the different nucleoside mono-, di-, and triphosphates, was made from their characteristic UV absorption spectra and retention times compared with those of a mixture of standards run immediately before cell extracts. The area of individual peaks was measured using ChemStation software (Agilent).

[5] = in vivo
[6] = tested on: LoVo (colon cancer, TP WT); test: Xenograft model, nude mice implanted with LoVo; conditions: NUC041 treatment, 8 days following the end of treatment
[7] = Pharmacokinetics after SC administration of NUC041 in phospholipid gel depot to mice; conditions: analyte in plasma following SC administration of NUC041 (100 mg/kg) to mice

Q: For Nc1ncn([C@H]2C[C@H](O)[C@@H](CO)O2)c(=O)n1 [Decitabine, 4-amino-1-((2R,4S,5R)-4-hydroxy-5-(hydroxymethyl)tetrahydrofuran-2-yl)-1,3,5-triazin-2(1I)-one], which “mice dead or moribund prior to the conclusion of the study” value ([1]; 5 mg/kg per day for three consecutive days a week for three weeks) is on record?
A: Its value is “Four of ten”.

Q: For “4-amino-1-((2R,4R,5R)-3,3-difluoro-4- hydroxy-5- (hydroxymethyl)tetrahydrofuran-2- yl)pyrimidin-2(1I)-one hydrochloride [Gemcitabine, reference compound]”, which GI50 [2] is on record?
A: Its GI50 is > 50 µM.

Q: What about the GI50 [3] of the same molecule?
A: The GI50 was > 50 µM.

Q: And the ADP [4]?
A: Its ADP is 15,639.

Q: What about the ATP [4] of the same molecule?
A: Its ATP is 26,296.

Q: What about the CTP [4] of the same molecule?
A: Its CTP is 1,297.

Q: What about the GTP [4] of the same molecule?
A: The GTP was 2,036.

Q: And the UTP [4]?
A: The UTP was 4,801.

Q: And the “dATP, peak area, AU” value [4]?
A: The value was 0 AU.

Q: And the “dGDP, peak area, AU” value [4]?
A: The value was 7.95 AU.

Q: And the “dTDP, peak area, AU” value [4]?
A: The value was 43.4 AU.

Q: And the “dUTP, peak area, AU” value [4]?
A: Its value is 5.3 AU.

Q: Which “hazard ratio (HR) vs saline control” value ([1]; 31 mg/kg intravenously, oil in water emulsion) does the source give for C[Si](C)(C)OC[C@H]1O[C@@H](n2cnc(N)nc2=O)C(F)(F)[C@@H]1O[Si](C)(C)C [NUC041, 4-amino-1-((2R,4R,5R)-3,3-difluoro-4-(trimethylsilyloxy)-5-((trimethylsilyloxy)methyl)tetrahydrofuran-2-yl)-1,3,5-triazin-2(1H)-one] here?
A: Its value is 0.51.

Q: What about the “pharmacokinetic advantage over NUC013” value [5] of the same molecule?
A: The value was “did not demonstrate a pharmacokinetic advantage over NUC013”.

Q: What about the “tumor weights less than saline controls” value [6] of the same molecule?
A: Its value is 26.6%.

Q: And the “AUClast (area under the plasma concentration versus time curve from 0 to last quantifiable sampling time)” value [7]?
A: The value was 20.0 ng·h/mL.
